Laboratory results as given in patent US11142533B2, “Macrocycles for use in treating disease” (TURNING POINT THERAPEUTICS, INC., priority 2019, dated 2021).
Each block holds one compound with its values, some of them ahead of it.

What was measured:
ALK (G1269A) = biological target: T1, ALK (G1269A) (Homo sapiens, UniProt Q9UM73, G1269A); assay: Biochemical kinase assay (Reaction Biology); details: 10 μM ATP
T1 construct: purchased Reaction Biology Corporation (contract assay)

ALK (G1269S) = biological target: T2, ALK (G1269S) (Homo sapiens, UniProt Q9UM73, G1269S); assay: Biochemical kinase assay (Reaction Biology); details: 10 μM ATP
T2 construct: purchased Reaction Biology Corporation (contract assay)

ALK (I1171N) = biological target: T3, ALK (I1171N) (Homo sapiens, UniProt Q9UM73, I1171N); assay: Biochemical kinase assay (Reaction Biology); details: 10 μM ATP
T3 construct: purchased Reaction Biology Corporation (contract assay)

ALK (L1198F/L1196M) = biological target: T4, ALK (L1198F/L1196M) (Homo sapiens, UniProt Q9UM73, L1196M/L1198F); assay: Biochemical kinase assay (Reaction Biology); details: 10 μM ATP
T4 construct: purchased Reaction Biology Corporation (contract assay)

ALK (E1210K/S1206C) = biological target: T5, ALK (E1210K/S1206C) (Homo sapiens, UniProt Q9UM73, E1210K/S1206C); assay: Biochemical kinase assay (Reaction Biology); details: 10 μM ATP
T5 construct: purchased Reaction Biology Corporation (contract assay)

ALK (L1198F/G1202R) = biological target: T6, ALK (L1198F/G1202R) (Homo sapiens, UniProt Q9UM73, G1202R/L1198F); assay: Biochemical kinase assay (Reaction Biology); details: 10 μM ATP
T6 construct: purchased Reaction Biology Corporation (contract assay)

ALK (F1174C) = biological target: T7, ALK (F1174C) (Homo sapiens, UniProt Q9UM73, F1174C); assay: Biochemical kinase assay (Reaction Biology); details: 10 μM ATP
T7 construct: purchased Reaction Biology Corporation (contract assay)

ALK = biological target: T8, ALK (Homo sapiens, UniProt Q9UM73); assay: Biochemical kinase assay (Reaction Biology); details: 10 μM ATP
T8 construct: purchased Reaction Biology Corporation (contract assay)

ALK (L1152P) = biological target: T9, ALK (L1152P) (Homo sapiens, UniProt Q9UM73, L1152P); assay: Biochemical kinase assay (Reaction Biology); details: 10 μM ATP
T9 construct: purchased Reaction Biology Corporation (contract assay)

ALK (D1203N) = biological target: T10, ALK (D1203N) (Homo sapiens, UniProt Q9UM73, D1203N); assay: Biochemical kinase assay (Reaction Biology); details: 10 μM ATP
T10 construct: purchased Reaction Biology Corporation (contract assay)

ALK (L1198F) = biological target: T11, ALK (L1198F) (Homo sapiens, UniProt Q9UM73, L1198F); assay: Biochemical kinase assay (Reaction Biology); details: 10 μM ATP
T11 construct: purchased Reaction Biology Corporation (contract assay)

[1] = Mouse pharmacokinetic study; format: in vivo; details: single oral dose (dose level not given), plasma
Experimental: To prepare 1 L of the vehicle solution (0.5% CMC and 1.0% Tween 80), 10 g of Tween 80 was mixed with 985 mL of water into a 1 L bottle. The mixture was stirred until Tween 80 was completely dissolved. With continued stirring, 5 g of CMC was very slowly sprinkled into the solution. Stirring was continued until all CMC was dissolved, which might take several hr. The resulting vehicle solution was stored at 4° C.
The compound was suspended in the vehicle solution and the mice were orally administrated with a single dose of the compound at the selected dose level. The blood samples were collected according to the defined time table into tubes containing K2-EDTA, followed by gentle mixing to assure distribution of the anti-coagulant. Immediately after the blood sample was collected and mixed, it was placed on ice. The samples were then centrifuged at 4° C. for 10 minutes at 5,000 RPM. The plasma was harvested into pre-labeled tubes and stored at −80° C. until analyzed by LC-MS/MS.

ALK (delete G1202) = biological target: T12, ALK (delete G1202) (Homo sapiens, UniProt Q9UM73, DEL1202-1202); assay: Biochemical kinase assay (Reaction Biology); details: 10 μM ATP
T12 construct: purchased Reaction Biology Corporation (contract assay)

ALK (G1202R) = biological target: T13, ALK (G1202R) (Homo sapiens, UniProt Q9UM73, G1202R); assay: Biochemical kinase assay (Reaction Biology); details: 10 μM ATP
T13 construct: purchased Reaction Biology Corporation (contract assay)

ALK (T1151-L1152insT) = biological target: T14, ALK (T1151-L1152insT) (Homo sapiens, UniProt Q9UM73, INS1151T); assay: Biochemical kinase assay (Reaction Biology); details: 10 μM ATP
T14 construct: purchased Reaction Biology Corporation (contract assay)

ALK (T1151M) = biological target: T15, ALK (T1151M) (Homo sapiens, UniProt Q9UM73, T1151M); assay: Biochemical kinase assay (Reaction Biology); details: 10 μM ATP
T15 construct: purchased Reaction Biology Corporation (assay run there)

ALK (E1210K/D1203N) = biological target: T16, ALK (E1210K/D1203N) (Homo sapiens, UniProt Q9UM73, D1203N/E1210K); assay: Biochemical kinase assay (Reaction Biology); details: 10 μM ATP
T16 construct: purchased Reaction Biology Corporation (contract assay)

ALK (S1206R) = biological target: T17, ALK (S1206R) (Homo sapiens, UniProt Q9UM73, S1206R); assay: Biochemical kinase assay (Reaction Biology); details: 10 μM ATP
T17 construct: purchased Reaction Biology Corporation (contract assay)

[2] = biological target: T18, Ba/F3 cell-derived tumors with the EML4-ALK L1198F/G1202R fusion (Homo sapiens, UniProt Q9UM73, G1202R/L1198F)
T18 sequence (Q9UM73 with tags, fused parts or gaps L1198F/G1202R): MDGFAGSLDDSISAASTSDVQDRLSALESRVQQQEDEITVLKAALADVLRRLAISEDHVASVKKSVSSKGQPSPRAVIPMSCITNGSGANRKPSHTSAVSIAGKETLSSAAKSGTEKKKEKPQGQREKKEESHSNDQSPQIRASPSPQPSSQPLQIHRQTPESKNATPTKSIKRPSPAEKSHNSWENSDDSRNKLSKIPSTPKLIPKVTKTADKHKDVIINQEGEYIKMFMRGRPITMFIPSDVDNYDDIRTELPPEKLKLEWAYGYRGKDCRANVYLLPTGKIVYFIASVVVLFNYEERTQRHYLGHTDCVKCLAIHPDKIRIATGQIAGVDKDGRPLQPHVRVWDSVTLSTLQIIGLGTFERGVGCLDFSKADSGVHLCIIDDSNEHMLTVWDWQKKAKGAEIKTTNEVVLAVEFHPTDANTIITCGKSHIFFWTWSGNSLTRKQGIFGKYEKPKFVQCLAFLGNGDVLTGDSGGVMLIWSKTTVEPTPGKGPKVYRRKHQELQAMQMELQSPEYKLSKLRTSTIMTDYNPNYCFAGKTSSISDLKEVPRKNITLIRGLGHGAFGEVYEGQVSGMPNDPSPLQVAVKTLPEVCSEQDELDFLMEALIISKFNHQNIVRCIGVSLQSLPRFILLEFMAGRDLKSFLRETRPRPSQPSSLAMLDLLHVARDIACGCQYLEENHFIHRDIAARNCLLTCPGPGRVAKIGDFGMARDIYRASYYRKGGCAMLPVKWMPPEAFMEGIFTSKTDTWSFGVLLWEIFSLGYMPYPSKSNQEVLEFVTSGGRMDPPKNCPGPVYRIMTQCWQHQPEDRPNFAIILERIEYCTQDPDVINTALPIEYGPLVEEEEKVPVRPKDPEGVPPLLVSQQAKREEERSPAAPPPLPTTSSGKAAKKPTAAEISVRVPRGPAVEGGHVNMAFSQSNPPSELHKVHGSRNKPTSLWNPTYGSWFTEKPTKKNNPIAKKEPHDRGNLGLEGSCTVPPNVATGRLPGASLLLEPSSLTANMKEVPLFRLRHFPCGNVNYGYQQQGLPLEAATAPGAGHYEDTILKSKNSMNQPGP

- IC50 (ALK (G1269A)): 1.28 nM
- IC50 (ALK (G1269S)): 6.14 nM
- IC50 (ALK (I1171N)): 1.16 nM
- IC50 (ALK (L1198F/L1196M)): 0.1 nM
- IC50 (ALK (E1210K/S1206C)): 0.13 nM
- IC50 (ALK (L1198F/G1202R)): 0.49 nM
- IC50 (ALK (F1174C)): 0.92 nM
- IC50 (ALK): 1.4 nM
- IC50 (ALK (L1152P)): 1.96 nM
- IC50 (ALK (D1203N)): 2.9 nM
- IC50 (ALK (L1198F)): 0.85 nM
- AUC [1]: 14600 ng·h/mL
- Cmax [1]: 2510 ng/mL
- Tmax [1]: 2 h
- IC50 (ALK (delete G1202)): 0.45 nM
- IC50 (ALK (G1202R)): 0.74 nM
- IC50 (ALK (T1151-L1152insT)): 0.86 nM
- IC50 (ALK (T1151M)): 0.28 nM
- IC50 (ALK (E1210K/D1203N)): 4 nM
- IC50 (ALK (S1206R)): 0.31 nM
Compound: O=C1NCC2(CC2)COc2ccc(F)cc2CN2c3nc4c1cnn4cc3OC[C@H]2C(F)F [Compound 2, (16′S)-16′-(Difluoromethyl)-12′-fluoro-4′H,5′H,6′H,8′H,14′H,16′H,17′H-spiro[cyclopropane-1,7′-[1,19](metheno)[1,4]oxazino[3,4-j]pyrazolo[4,3-g][1,5,9,11]benzoxatriazacyclotetradecin]-4′-one]

- Tumor growth inhibition (TGI) ([2]; all three dose levels of 2, 5, and 10 mg/kg BID, after 7 days of treatment): 200%
- tumor response at the end of study ([2]; all three groups (2, 5, 10 mg/kg BID), day 14 post inoculation): complete regression
- AUC [1]: 11900 ng·h/mL
- Cmax [1]: 1750 ng/mL
- Tmax [1]: 2 h
Compound: CC1(C)COc2ccc(F)cc2CN2c3nc4c(cnn4cc3OC[C@H]2C(F)F)C(=O)N1 [Compound 1, (4S)-4-(Difluoromethyl)-8-fluoro-13,13-dimethyl-3,4,13,14-tetrahydro-6H-18,1-(metheno)[1,4]oxazino[3,4-i]pyrazolo[4,3-f][1,4,8,10]benzoxatriazacyclotridecin-15(12H)-one]
- body weight ([2]; 2, 5, 10 mg/kg BID, after 7 days of treatment): no body weight loss
